This passage reports IC50, inhibition and GI50 results from patent US12240844B2 (Voronoi, Inc., priority 2019, dated 2025).

Each structure is given as a SMILES string. pIC50: −log10 of the molar value.

Assay [1] has as its target T1, human GST-DYRK1A (full length) (Homo sapiens, UniProt Q13627).
T1 construct: purified human GST-DYRK1A (full length, Thermo scientifics) enzyme; GST; purchased Thermo scientifics
Nature of the assay: GST-DYRK1A enzyme inhibition, ADP-Glo kinase assay. Type of assay: biochemical. The settings on record: read-out: DYRK1 IC50. A digest of the protocol:
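ADP-Glo luminescence quantified kinase activity after a 1 h, 25° C reaction of 10 ng full-length GST-tagged human DYRK1A, substrate and 10 uM ATP in Tris-HCl buffer pH 7.4 with MgCl2, BSA and DTT. Triplicate IC50 values (nM) calculated relative to untreated solvent control.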
(In general: In ADP-Glo the light output rises with the ADP produced.)

The target of the next assay is T2, human GST-CLK1 (129-end) (Homo sapiens, UniProt P49759).
T2 construct: purified human GST-CLK1 (129-end, Signalchem) enzyme; GST; purchased Signalchem
T2 sequence (P49759 129-484 limits assumed): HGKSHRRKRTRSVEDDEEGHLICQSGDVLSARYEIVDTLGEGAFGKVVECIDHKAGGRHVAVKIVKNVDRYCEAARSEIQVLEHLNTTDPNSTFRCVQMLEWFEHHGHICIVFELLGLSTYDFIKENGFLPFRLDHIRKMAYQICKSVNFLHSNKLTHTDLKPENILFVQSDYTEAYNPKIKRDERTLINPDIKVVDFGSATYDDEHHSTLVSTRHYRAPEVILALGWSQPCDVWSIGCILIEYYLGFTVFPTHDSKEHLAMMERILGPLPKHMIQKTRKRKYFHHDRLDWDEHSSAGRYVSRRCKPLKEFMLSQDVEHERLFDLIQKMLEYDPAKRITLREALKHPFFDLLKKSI
Put plainly: GST-CLK1 enzyme inhibition, ADP-Glo kinase assay. The assay is classed as biochemical. The settings on record: ATP 10 uM. The procedure, abridged:
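ADP formation was read by ADP-Glo luminescence after 1 h at 25° C with 3 ng human GST-CLK1 (129-end), substrate and 10 uM ATP in Tris pH 7.4 buffer containing MgCl2, BSA and DTT. Inhibition relative to untreated solvent control gave IC50 (nM), run in triplicate.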

The test system of the next assay is IL-6. Nature of the assay: IL-6 secretion inhibition in LPS-treated THP-1 cells (ELISA). Type of assay: cell-based. The settings on record: Homo sapiens, compound 0.5 μM, LPS 500 ng/ml, 24 hours, read-out: THP1/IL6 (% inhib). As for the experimental part: (§1) In order to evaluate the cytokine secretion inhibitory efficacy of mononuclear cells, THP-1 cells (ATCC, #TIB-202) as a human-derived monocyte cell line were cultured in RPMI-1640 (Hyclone, SH30027.01) media in which 10% fetal bovine serum (Hyclone, SH30084.03), 1% penicillin streptomycin (Welgene, LS202-02) and 50 μM 2-Mercaptoethanol (Gibco, #21985023) were contained. In the test, 1.5-2×10^5 cells/250 μl per each well were dispensed in a 48-well plate (SPL, #30048) and incubated in an incubator at 37° C. and 5% CO2 for 16 hours, and then the compounds were diluted in DMSO so that the final concentration was 0.5 μM. It was treated with Lipopolysaccharides (LPS) (sigma, #L6529) […]. After treatment with the compound, the LPS was treated so that the final concentration was 500 ng/ml, and then the cell culture fluid was collected after culturing for 24 hours, and the degrees of the cytokines IL-6 (R&D system, #D6050) and TNF-α (R&D system, #DTA00D) contained in the culture fluid were collected using each ELISA kit. After performing the experiment according to the manufacturer's instructions, the absorbance at 450 nm was measured and analyzed using a microplate reader.
(An ELISA detects its analyte on a solid surface through an enzyme-linked reagent.)

Another assay addresses LRRK2 (Homo sapiens, UniProt Q5S007). Nature of the assay: LRRK2 enzyme inhibition, ADP-Glo kinase assay. Type of assay: biochemical. The arrangement: purchased Invitrogen PR8604B. A digest of the protocol:
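ADP-Glo luminescence read after 2 h at 25° C, 10 μM ATP, 25 ng purified human LRRK2 and […] substrate in Tris-HCl pH7.4 buffer with MgCl2, BSA, DTT. Twelve final concentrations, 50 μM down to 0.000001024 μM; IC50 (nM) from inhibition relative to untreated solvent control.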

The target in the next assay is LRRK2 (G2019S) (Homo sapiens, UniProt Q5S007, G2019S). Put plainly: LRRK2 G2019S enzyme inhibition, ADP-Glo kinase assay. The arrangement: purchased SignalChem L10-12GG. Type of assay: biochemical. A digest of the protocol: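 Activity read as ADP-Glo luminescence, normalized to untreated solvent control, with IC50 (nM) fitted over 12 final compound levels (top 50 μM). Reaction: 2 h, 25° C, human LRRK2 G2019S 16 ng, ATP 25 μM, substrate 0.2 μg, in Tris-HCl pH 7.4 with MgCl2, BSA and DTT.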
LRRK2 (G2019S), sequence (Q5S007 970-2527 G2019S limits assumed): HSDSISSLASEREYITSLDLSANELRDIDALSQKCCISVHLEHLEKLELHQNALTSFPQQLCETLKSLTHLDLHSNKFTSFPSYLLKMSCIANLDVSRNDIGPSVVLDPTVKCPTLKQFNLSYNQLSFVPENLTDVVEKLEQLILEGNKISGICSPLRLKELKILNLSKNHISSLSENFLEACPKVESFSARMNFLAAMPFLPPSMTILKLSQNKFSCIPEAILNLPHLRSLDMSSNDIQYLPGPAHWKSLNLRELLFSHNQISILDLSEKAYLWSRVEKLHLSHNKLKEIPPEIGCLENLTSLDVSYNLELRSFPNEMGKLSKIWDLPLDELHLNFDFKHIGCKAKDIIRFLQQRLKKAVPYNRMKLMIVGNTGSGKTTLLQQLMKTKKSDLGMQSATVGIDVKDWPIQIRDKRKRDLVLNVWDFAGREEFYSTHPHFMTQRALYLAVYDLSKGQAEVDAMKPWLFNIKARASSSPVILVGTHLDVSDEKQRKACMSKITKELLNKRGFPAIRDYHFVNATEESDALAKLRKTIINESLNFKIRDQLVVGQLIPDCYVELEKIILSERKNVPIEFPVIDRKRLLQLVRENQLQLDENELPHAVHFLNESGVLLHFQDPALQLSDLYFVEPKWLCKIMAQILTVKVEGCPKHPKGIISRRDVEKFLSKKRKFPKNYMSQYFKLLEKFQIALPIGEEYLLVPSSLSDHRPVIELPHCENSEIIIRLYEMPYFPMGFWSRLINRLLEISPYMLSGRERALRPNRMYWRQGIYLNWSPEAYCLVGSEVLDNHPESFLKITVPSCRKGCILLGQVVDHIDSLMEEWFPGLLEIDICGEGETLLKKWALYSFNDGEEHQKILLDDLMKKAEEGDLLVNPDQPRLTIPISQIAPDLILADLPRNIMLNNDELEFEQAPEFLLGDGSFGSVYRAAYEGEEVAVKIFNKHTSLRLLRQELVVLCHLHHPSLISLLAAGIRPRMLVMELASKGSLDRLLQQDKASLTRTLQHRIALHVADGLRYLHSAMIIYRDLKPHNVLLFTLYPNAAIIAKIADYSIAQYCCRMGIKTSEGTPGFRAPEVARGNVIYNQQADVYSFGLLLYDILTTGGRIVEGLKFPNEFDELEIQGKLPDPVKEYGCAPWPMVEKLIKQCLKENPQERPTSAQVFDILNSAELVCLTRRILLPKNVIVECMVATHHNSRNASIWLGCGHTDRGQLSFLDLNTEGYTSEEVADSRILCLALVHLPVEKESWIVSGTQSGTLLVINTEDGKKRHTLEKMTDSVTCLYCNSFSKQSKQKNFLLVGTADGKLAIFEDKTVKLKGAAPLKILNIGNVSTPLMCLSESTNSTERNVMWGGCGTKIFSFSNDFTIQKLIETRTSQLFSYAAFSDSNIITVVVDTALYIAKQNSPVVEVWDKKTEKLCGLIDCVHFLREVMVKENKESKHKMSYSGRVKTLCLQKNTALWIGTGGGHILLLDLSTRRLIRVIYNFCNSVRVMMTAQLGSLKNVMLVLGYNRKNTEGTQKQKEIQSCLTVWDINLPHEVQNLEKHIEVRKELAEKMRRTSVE

The next assay has as its system TNF-α. Put plainly: TNF-α secretion inhibition in LPS-treated THP-1 cells (ELISA). Type of assay: cell-based. The following applies: Homo sapiens, compound 0.5 μM, LPS 500 ng/ml, 24 hours, read-out: THP-1/TNF-a (% inhib). As for the experimental part: as §1
The test system of another assay is human DYRK1A and Tau. Nature of the assay: Tau phosphorylation inhibition, ClariCELL Kinase Cell-Based Assay (Carnabio). The procedure:
Tau phosphorylation inhibitory efficacy was measured using the ClariCELL™ Kinase Cell-Based Assay service of Carnabio, located in the United States. The compounds are exposed to human embryonic kidney ([…]) cells transiently expressing human DYRK1A and Tau, and then the cells are lysed to release cellular proteins. At this time, the released Tau is captured on a plate, and the degree of phosphorylation is quantified by ELISA using an antibody specific for Tau phosphorylation.

For a further assay, the system named is MDA-MB-231 cell line. Put plainly: MDA-MB-231 cancer cell proliferation inhibition (Cell Titer-Glo). Type of assay: cell-based. The following applies: Homo sapiens, MDA-MB-231 triple-negative breast cancer cell line, 72 hours. A digest of the protocol: (§2)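 GI50 comes from CellTiter-Glo luminescence, read 10 min after reagent addition at RT, following 72 h compound treatment. Eleven concentrations were used (⅓ steps, highest 10 μM final) on 2000 cells/well. MDA-MB-231 and MDA-MB-468 were grown in DMEM, SHP-77 in RPMI.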
(In general: Cellular ATP, detected with luciferase, serves as a proxy for viable cell number.)

For the next assay, the system named is SHP-77. Nature of the assay: SHP-77 cancer cell proliferation inhibition (Cell Titer-Glo). Type of assay: cell-based. The following applies: Homo sapiens, SHP77, SHP-77 small cell lung cancer cell line, 72 hours. A digest of the protocol:
as §2

LRRK2, sequence (Q5S007 970-2527 limits assumed): as the sequence (Q5S007 970-2527 G2019S limits assumed) above, with S1050G counted along it

In general, pIC50 refers to the IC50 on a negative log10 scale, so that one unit is a factor of ten. Regarding `COCCNc1cc(Nc2ccc(C(=O)N3CCOCC3)c3c2OCC3)nc2[nH]cc(C(F)(F)F)c12` [Example 54, (7-((4-((2-methoxyethyl)amino)-3-(trifluoromethyl)-1H-pyrrolo[2,3-b]pyridin-6-yl)amino)-2,3-dihydrobenzofuran-4-yl)(morpholino) methanone], the pIC50 (in [1]; against human GST-CLK1 (129-end); against LRRK2; at LRRK2 (G2019S)) was over 7.00 each time. Also, in the assay with IL-6, the inhibition at 0.5 µM came out at 46.9%.

For `CNc1cc(Nc2ccc(C(=O)N3CCC(N4CCOCC4)CC3)c3c2OCO3)nc2[nH]cc(C(F)(F)F)c12` [Example 235, (7-((4-(methylamino)-3-(trifluoromethyl)-1H-pyrrolo[2,3-b]pyridin-6-yl)amino)benzo[d][1,3]dioxol-4-yl)(4-morpholinopiperidin-1-yl)methanone], the negative logarithm of the IC50 (pIC50) (in assay [1]; on human GST-CLK1 (129-end); on LRRK2) was over 7.00 in each case. Also, the inhibition at 0.5 µM turned out to be 22.9% in the assay with IL-6 and 36.3% in the assay on TNF-α.

As to `CCNc1cc(Nc2ccc(C(=O)N3CCN(CCO)CC3)c3c2OCC3)nc2[nH]cc(C(F)(F)F)c12` [Example 253, (7-((4-(ethylamino)-3-(trifluoromethyl)-1H-pyrrolo[2,3-b]pyridin-6-yl)amino)-2,3-dihydrobenzofuran-4-yl)(4-(2-hydroxyethyl)piperazin-1-yl)methanone], the pIC50 (in assay [1]; on human GST-CLK1 (129-end); against LRRK2 (G2019S)) was over 7.00 each time. Besides, the results for the inhibition at 0.5 µM with IL-6 and in the assay with TNF-α were 49.2% and 9.83%, respectively.

Turning to `CCNc1cc(Nc2ccc(C(=O)N3CCC(N4CCN(C)CC4)CC3)c3c2OCC3)nc2[nH]cc(C(F)(F)F)c12` [Example 247, (7-((4-(ethylamino)-3-(trifluoromethyl)-1H-pyrrolo[2,3-b]pyridin-6-yl)amino)-2,3-dihydrobenzofuran-4-yl)(4-(4-methylpiperazin-1-yl)piperidin-1-yl)methanone], the negative logarithm of the IC50 (pIC50) (in [1]; against human GST-CLK1 (129-end); against LRRK2 (G2019S)) was over 7.00 in each case. The inhibition at 0.5 µM stood at 31.9% in the assay with IL-6; 15.5% in the assay on TNF-α; 76.8% with human DYRK1A and Tau. Also, in the assay with human DYRK1A and Tau, the inhibition at 0.25 µM worked out at 52.3%. In the assay with human DYRK1A and Tau, the inhibition at 1 µM stood at 104%.

For the compound `CNc1cc(Nc2ccc(C(=O)N3CCOCC3)c3c2OCO3)nc2[nH]cc(C(F)(F)F)c12` [Example 38, (7-((4-(methylamino)-3-(trifluoromethyl)-1H-pyrrolo[2,3-b]pyridin-6-yl)amino)benzo [d] [1,3]dioxol-4-yl)(morpholino) methanone], the pIC50 in assay [1] was over 7.00; against human GST-CLK1 (129-end), over 7.00; against LRRK2 it was 6.52 to 7.00; on LRRK2 (G2019S), over 7.00. In addition, the inhibition at 0.5 µM in the assay on IL-6 stood at 36.1%; in the assay on TNF-α, 32.8%.

For the compound `CS(=O)(=O)CCNc1cc(Nc2ccc(C(=O)N3CCOCC3)c3c2OCCO3)nc2[nH]cc(C(F)(F)F)c12` [Example 157, (8-((4-((2-(methylsulfonyl)ethyl)amino)-3-(trifluoromethyl)-1H-pyrrolo[2,3-b]pyridin-6-yl)amino)-2,3-dihydrobenzo [b] [1,4]dioxin-5-yl)(morpholino) methanone], the pIC50 (in assay [1]; against human GST-CLK1 (129-end); against LRRK2; against LRRK2 (G2019S)) was over 7.00 throughout. The inhibition at 0.5 µM with IL-6 turned out to be 29.1%; in the assay with TNF-α, 31%.

Regarding `CCNc1cc(Nc2ccc(C(=O)N3CCN(CC4CC4)CC3)c3c2OCC3)nc2[nH]cc(C(F)(F)F)c12` [Example 257, (4-(cyclopropylmethyl)piperazin-1-yl)(7-((4-(ethylamino)-3-(trifluoromethyl)-1H-pyrrolo[2,3-b]pyridin-6-yl)amino)-2,3-dihydrobenzofuran-4-yl)methanone], the pIC50 (in [1]; against human GST-CLK1 (129-end); on LRRK2 (G2019S)) was over 7.00 in each case. The inhibition at 0.5 µM in the assay with IL-6 worked out at 44%; in the assay with TNF-α, 7.88%.

Broadly, the GI50 is the concentration giving 50% growth inhibition. Low values mean more potent growth inhibition, high ones less potent growth inhibition. On to `CCCNc1cc(Nc2ccc(S(=O)(=O)N3CCC(N4CCOCC4)CC3)cc2OC)nc2[nH]cc(C(F)(F)F)c12` [Example 40, N^6-(2-methoxy-4-((4-morpholinopiperidin-1-yl)sulfonyl)phenyl)-N^4-propyl-3-(trifluoromethyl)-1H-pyrrolo[2,3-b]pyridine-4,6-diamine], for which the figures for the pIC50 (in assay [1]; against human GST-CLK1 (129-end); on LRRK2) were over 7.00, 6.00 to 6.52 and 6.00 to 6.52, respectively. Besides, the GI50 in the assay with MDA-MB-231 cell line and in the assay on SHP-77 was 301 to 1000 nM in each case. Moreover, the inhibition at 0.25 µM in the assay with human DYRK1A and Tau was found to be 9.2%. Besides, in the assay on human DYRK1A and Tau, the inhibition at 0.5 µM came to 15.2%. Moreover, the inhibition at 1 µM in the assay on human DYRK1A and Tau stood at 38.7%.

Take `CCNc1cc(Nc2ccc(C(=O)N3CCC(N4CCN(C5CC5)CC4)CC3)c3c2OCC3)nc2[nH]cc(C(F)(F)F)c12` [Example 264, (4-(4-cyclopropylpiperazin-1-yl)piperidin-1-yl)(7-((4-(ethylamino)-3-(trifluoromethyl)-1H-pyrrolo[2,3-b]pyridin-6-yl)amino)-2,3-dihydrobenzofuran-4-yl)methanone]: the negative logarithm of the IC50 (pIC50) (in [1]; against human GST-CLK1 (129-end); against LRRK2 (G2019S)) was over 7.00 each time. Also, the inhibition at 0.5 µM came to 45.5% in the assay on IL-6 and 11.2% with TNF-α.

Regarding `CCNc1cc(Nc2ccc(C(=O)N3CC[C@@H](N4CCOCC4)C3)c3c2OCC3)nc2[nH]cc(C(F)(F)F)c12` [Example 213, (R)-(7-((4-(ethylamino)-3-(trifluoromethyl)-1H-pyrrolo[2,3-b]pyridin-6-yl)amino)-2,3-dihydrobenzofuran-4-yl)(3-morpholinopyrrolidin-1-yl)methanone], the pIC50 in assay [1] is 6.52 to 7.00; against human GST-CLK1 (129-end), over 7.00; against LRRK2 it was 6.52 to 7.00; against LRRK2 (G2019S), 6.52 to 7.00. Further, the inhibition at 0.5 µM was 3.9% in the assay with IL-6 and 2.6% in the assay on TNF-α.

As to `CCNc1cc(Nc2ccc(S(=O)(=O)N3CCC(N4CCOCC4)CC3)cc2OC)nc2[nH]cc(C(F)(F)F)c12` [Example 185, N^4-ethyl-N^6-(2-methoxy-4-((4-morpholinopiperidin-1-yl)sulfonyl)phenyl)-3-(trifluoromethyl)-1H-pyrrolo[2,3-b]pyridine-4,6-diamine], the negative-log IC50 (pIC50) in assay [1] is 6.52 to 7.00; against human GST-CLK1 (129-end) it was 6.52 to 7.00; at LRRK2, over 7.00; at LRRK2 (G2019S) it was over 7.00. In addition, the figures for the 50% growth inhibitory concentration (GI50) in the assay on MDA-MB-231 cell line and in the assay on SHP-77 were 51 to 100 nM and under 50 nM, respectively. Besides, the inhibition at 0.25 µM with human DYRK1A and Tau came to 22.9%. For the same compound, the inhibition at 0.5 µM in the assay with human DYRK1A and Tau stood at 37.7%. Besides, the inhibition at 1 µM with human DYRK1A and Tau was 56.2%.
